Measurements published in the supplement of paper PMC13380429.

Columns and labels:
Conditions in all cases: 72 h
HepG2 [1] = assay: drug sensitivity score (DSS) for viability; higher = more toxic; extreme values may be limits of the assay
Calu-3 [2] = assay: as above
Caco-2 [3] = assay: as above
U2OS [4] = assay: as above
Vero E6 [5] = assay: as above
HepG2 [6] = assay: relative viability EC50 (midpoint between 100% and the lowest measured viability); higher = less toxic
Calu-3 [7] = assay: as above
Caco-2 [8] = assay: as above
U2OS [9] = assay: as above
Vero E6 [10] = assay: as above
HepG2 [11] = assay: cell viability relative to DMSO; higher = less toxic
Calu-3 [12] = assay: as above
Caco-2 [13] = assay: as above
U2OS [14] = assay: as above
Vero E6 [15] = assay: as above

Compound	drug sensitivity score (HepG2 [1])	drug sensitivity score (Calu-3 [2])	drug sensitivity score (Caco-2 [3])	drug sensitivity score (U2OS [4])	drug sensitivity score (Vero E6 [5])	relative viability EC50 (HepG2 [6]) [µM]	relative viability EC50 (Calu-3 [7]) [µM]	relative viability EC50 (Caco-2 [8]) [µM]	relative viability EC50 (U2OS [9]) [µM]	relative viability EC50 (Vero E6 [10]) [µM]	cell viability (HepG2 [11]; 1 nM) [%]	cell viability (HepG2 [11]; 10 nM) [%]	cell viability (HepG2 [11]; 100 nM) [%]	cell viability (HepG2 [11]; 1000 nM) [%]	cell viability (HepG2 [11]; 10000 nM) [%]	cell viability (Calu-3 [12]; 1 nM) [%]	cell viability (Calu-3 [12]; 10 nM) [%]	cell viability (Calu-3 [12]; 100 nM) [%]	cell viability (Calu-3 [12]; 1000 nM) [%]	cell viability (Calu-3 [12]; 10000 nM) [%]	cell viability (Caco-2 [13]; 1 nM) [%]	cell viability (Caco-2 [13]; 10 nM) [%]	cell viability (Caco-2 [13]; 100 nM) [%]	cell viability (Caco-2 [13]; 1000 nM) [%]	cell viability (Caco-2 [13]; 10000 nM) [%]	cell viability (U2OS [14]; 1 nM) [%]	cell viability (U2OS [14]; 10 nM) [%]	cell viability (U2OS [14]; 100 nM) [%]	cell viability (U2OS [14]; 1000 nM) [%]	cell viability (U2OS [14]; 10000 nM) [%]	cell viability (Vero E6 [15]; 1 nM) [%]	cell viability (Vero E6 [15]; 10 nM) [%]	cell viability (Vero E6 [15]; 100 nM) [%]	cell viability (Vero E6 [15]; 1000 nM) [%]	cell viability (Vero E6 [15]; 10000 nM) [%]
COc1cccc(C(=O)CCN[C@@H](C)[C@H](O)c2ccccc2)c1 [oxyfedrine]	1.3	0	0	0	0	> 10	> 10	> 10	> 10	> 10	101	105	98.9	91.3	79.8	86.3	98.6	113	95.6	107	99.3	101	108	102	95.8	97.8	103	98.5	99.9	95.4	103	99.8	99.2	104	101
CN1C[C@H](CNC(=O)OCc2ccccc2)C[C@@H]2c3cccc4c3c(cn4C)C[C@H]21 [metergoline]	0.6	0	0	0	0.4	> 10	> 10	> 10	> 10	> 10	101	98.5	100	96.9	84.6	101	92.2	101	89.8	104	116	91.3	101	88.1	99.6	95.4	99.1	104	96.4	95.8	105	105	95.2	94	84.2
COc1ccc(-c2nc(-c3ccc(-c4cccc(Cl)c4)o3)[nH]c2-c2ccc(OC)cc2)cc1 [neurodazine]	0.3	0.6	0.2	0	0	> 10	> 10	> 10	> 10	> 10	112	99.5	96.3	98.2	86.2	91.4	96	97.2	79.6	89.6	106	94.9	109	103	84.4	100	99	105	96.3	96.1	109	103	98.4	102	96.6
CCc1cccc2c3c([nH]c12)C(CC)(CC(=O)O)OCC3 (stereo not given) [etodolac]	0	0	0	0	0	> 10	> 10	> 10	> 10	> 10	105	107	96.3	94.4	99.1	98	107	98.7	91.9	106	86.2	99.4	82.7	86.9	87.9	95.7	103	96.2	104	93.4	91.7	98.8	93.7	105	95.2
COc1cc2nc(N3CCN(C(=O)c4ccco4)CC3)nc(N)c2cc1OC [prazosin]	0	0	0	0	0	> 10	> 10	> 10	> 10	> 10	89.9	93.5	86.2	91.9	97.6	105	102	103	97.4	99.1	94.4	91.2	98.4	96	92.5	98.2	97.8	99.5	102	101	102	105	101	99.3	118
O=C(Nc1cc(C(F)(F)F)cc(C(F)(F)F)c1)c1cc(Cl)ccc1O [IKK-2-inhibitor-V]	14.7	4.8	13.8	7.7	10.3	0.477	3.14	0.436	1.77	0.876	99.6	99.6	112	17.2	6.8	98.4	107	98.3	99.8	13.8	95.9	89.4	95.3	29.2	14.5	95.7	101	89.7	82.9	11.2	100	90.5	98.8	52.6	16.3
COC(=O)c1cnn(-c2ccc(F)cc2F)c1/C=N/NC(=S)NC(C)(C)C	0	0.3	0	0	0	> 10	> 10	> 10	> 10	> 10	112	107	98.4	94.3	105	101	101	97.4	89.1	89.6	102	90.6	102	105	93.9	98.6	98.3	104	98	103	106	101	95.9	96.1	98.8
O=C(Nc1cnc(Cl)nc1)c1ccc(F)c(F)c1	0	0	0	0	0	> 10	> 10	> 10	> 10	> 10	96.5	96.9	97.7	96.5	93.3	98.5	98.9	90.7	95.5	103	101	96.7	95	95.5	93.8	102	95.1	95.6	98	98.9	94.5	92.1	99.4	96.9	95.4
N[C@@H](C[C@@H](F)C(=O)O)C(=O)O [BAY-85-8050]	0	0	0	0	0	> 10	> 10	> 10	> 10	> 10	96.2	98.7	109	95.6	99.7	90.2	94.7	90.6	86.2	98.5	91.1	105	97.8	100	110	93.5	99.6	96.7	100	106	93.6	93.8	102	95.7	100
CCCC(CCC)C(=O)NCc1ccc2c(cnn2-c2ccccc2OC)c1 [M-25]	0	0	1.2	0	0	> 10	> 10	> 10	> 10	> 10	99.8	108	101	105	87	113	95.5	115	101	102	99.2	102	97.1	95.3	79.6	102	100	99.5	100	95.1	94.5	94.2	96.6	91.5	88.8
O=C(Nc1ccc2[nH]ccc2c1)c1ccccc1 [OAC2]	0	0	0	0	0	> 10	> 10	> 10	> 10	> 10	104	106	97.3	99.7	101	102	99	104	99.3	96.6	91.9	91.3	95.1	98.7	94.5	103	97.2	97.1	104	95.3	92.3	95.7	99.6	92.8	95.5
O=c1cc(N2CCOCC2)oc2c1ccc1ccccc12 [NU-7026]	0.4	0.7	0.5	0	0.1	> 10	> 10	> 10	> 10	> 10	106	93.4	92.9	90.8	88	98.4	107	102	97.6	82.8	94.3	113	91	99.2	82.7	98.9	101	96.2	99.6	95.7	99	103	98.3	101	86.2
CC(=O)Nc1c(I)c(C(=O)O)c(I)c(N(C)C(C)=O)c1I [metrizoic-acid]	0	0	0	0	0	> 10	> 10	> 10	> 10	> 10	107	104	105	96.6	110	96.6	103	98.3	94.9	107	92	102	94	97.3	92.8	97.6	105	95.9	105	96.5	104	98.6	105	98.8	101
COC(=O)[C@H](c1ccccc1Cl)N1CCc2sccc2C1 [clopidogrel]	0	0	0	0	0	> 10	> 10	> 10	> 10	> 10	97.7	97.7	98.4	112	101	89.9	104	96.9	96.7	101	91.9	91.8	95.1	95	88.2	94.8	99.3	95.8	102	97.6	105	86.7	104	104	108
COc1ccc(CN2C(=O)C(=O)c3cc(OC(F)(F)F)ccc32)cc1	2.9	5.7	5.4	14.6	6.2	3.43	1.43	1.66	0.374	1.75	97.7	108	109	103	41.8	98.3	96.7	110	83	41.7	90.2	100	89.8	85.5	38.8	99	99.7	92.8	25.8	13.4	107	107	103	86	28.8
